Data on three compounds can be found in ChEMBL document CHEMBL5678818, “Discovery of potent SOS1 inhibitors that block RAS activation via disruption of the RAS-SOS1 interaction” (Proc Natl Acad Sci U S A, 2019).

As usually defined, the IC50 is the midpoint of a concentration-inhibition curve.

Test [1] addresses Beta-adrenergic receptor kinase 1 (Homo sapiens) (UniProt P25098). Put plainly: Inhibition of GRK2 (unknown origin) assessed as residual activity at 1000 nM by KINOMEscan analysis relative to control.
Test [2] has as its target T1, Serine/threonine-protein kinase BRSK1 (Homo sapiens) (UniProt Q8TDC3).
T1 sequence (whole entry): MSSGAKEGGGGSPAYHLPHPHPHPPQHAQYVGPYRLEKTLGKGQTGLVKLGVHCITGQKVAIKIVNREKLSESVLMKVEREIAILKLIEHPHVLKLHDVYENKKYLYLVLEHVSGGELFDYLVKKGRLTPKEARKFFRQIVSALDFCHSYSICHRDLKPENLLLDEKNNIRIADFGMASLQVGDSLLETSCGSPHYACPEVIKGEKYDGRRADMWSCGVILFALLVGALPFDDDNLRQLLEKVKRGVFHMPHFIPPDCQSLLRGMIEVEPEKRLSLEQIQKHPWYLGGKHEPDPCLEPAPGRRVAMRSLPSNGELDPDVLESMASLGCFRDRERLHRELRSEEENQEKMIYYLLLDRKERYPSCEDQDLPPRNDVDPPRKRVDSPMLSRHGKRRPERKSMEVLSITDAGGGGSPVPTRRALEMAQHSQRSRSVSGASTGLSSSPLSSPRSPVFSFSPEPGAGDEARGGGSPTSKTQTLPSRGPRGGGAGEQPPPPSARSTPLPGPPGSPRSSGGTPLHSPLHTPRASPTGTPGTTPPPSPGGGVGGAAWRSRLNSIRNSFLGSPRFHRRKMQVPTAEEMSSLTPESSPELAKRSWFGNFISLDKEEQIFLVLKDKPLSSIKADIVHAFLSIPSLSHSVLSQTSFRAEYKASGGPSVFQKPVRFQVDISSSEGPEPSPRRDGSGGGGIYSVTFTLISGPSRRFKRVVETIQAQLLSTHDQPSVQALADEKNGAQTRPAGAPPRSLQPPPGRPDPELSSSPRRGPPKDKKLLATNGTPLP
In words: Inhibition of BRSK1 (unknown origin) assessed as residual activity at 100 nM by KINOMEscan analysis relative to control.

In test [3] the target is Calcium/calmodulin-dependent protein kinase type 1G (Homo sapiens) (UniProt Q96NX5). Put plainly: Inhibition of CAMK1G (unknown origin) assessed as residual activity at 100 nM by KINOMEscan analysis relative to control.
The target of test [4] is Epithelial discoidin domain-containing receptor 1 (Homo sapiens) (UniProt Q08345). In words: Inhibition of DDR1 (unknown origin) assessed as residual activity at 100 nM by KINOMEscan analysis relative to control.
Test [5] has as its target Receptor tyrosine-protein kinase erbB-2 (Homo sapiens) (UniProt P04626). In words: Inhibition of ERBB2 (unknown origin) assessed as residual activity at 100 nM by KINOMEscan analysis relative to control.
Test [6] addresses RAC-gamma serine/threonine-protein kinase (Homo sapiens) (UniProt Q9Y243). In words: Inhibition of AKT3 (unknown origin) assessed as residual activity at 100 nM by KINOMEscan analysis relative to control.
In test [7] the target is Serine/threonine-protein kinase MAK (Homo sapiens) (UniProt P20794). Put plainly: Inhibition of MAK (unknown origin) assessed as residual activity at 100 nM by KINOMEscan analysis relative to control.
For test [8], the target named is Ephrin type-A receptor 5 (Homo sapiens) (UniProt P54756). In words: Inhibition of EPHA5 (unknown origin) assessed as residual activity at 100 nM by KINOMEscan analysis relative to control.
Test [9] has as its target T2, Son of sevenless homolog 1 (Homo sapiens, UniProt Q07889).
T2 sequence (Q07889 whole entry): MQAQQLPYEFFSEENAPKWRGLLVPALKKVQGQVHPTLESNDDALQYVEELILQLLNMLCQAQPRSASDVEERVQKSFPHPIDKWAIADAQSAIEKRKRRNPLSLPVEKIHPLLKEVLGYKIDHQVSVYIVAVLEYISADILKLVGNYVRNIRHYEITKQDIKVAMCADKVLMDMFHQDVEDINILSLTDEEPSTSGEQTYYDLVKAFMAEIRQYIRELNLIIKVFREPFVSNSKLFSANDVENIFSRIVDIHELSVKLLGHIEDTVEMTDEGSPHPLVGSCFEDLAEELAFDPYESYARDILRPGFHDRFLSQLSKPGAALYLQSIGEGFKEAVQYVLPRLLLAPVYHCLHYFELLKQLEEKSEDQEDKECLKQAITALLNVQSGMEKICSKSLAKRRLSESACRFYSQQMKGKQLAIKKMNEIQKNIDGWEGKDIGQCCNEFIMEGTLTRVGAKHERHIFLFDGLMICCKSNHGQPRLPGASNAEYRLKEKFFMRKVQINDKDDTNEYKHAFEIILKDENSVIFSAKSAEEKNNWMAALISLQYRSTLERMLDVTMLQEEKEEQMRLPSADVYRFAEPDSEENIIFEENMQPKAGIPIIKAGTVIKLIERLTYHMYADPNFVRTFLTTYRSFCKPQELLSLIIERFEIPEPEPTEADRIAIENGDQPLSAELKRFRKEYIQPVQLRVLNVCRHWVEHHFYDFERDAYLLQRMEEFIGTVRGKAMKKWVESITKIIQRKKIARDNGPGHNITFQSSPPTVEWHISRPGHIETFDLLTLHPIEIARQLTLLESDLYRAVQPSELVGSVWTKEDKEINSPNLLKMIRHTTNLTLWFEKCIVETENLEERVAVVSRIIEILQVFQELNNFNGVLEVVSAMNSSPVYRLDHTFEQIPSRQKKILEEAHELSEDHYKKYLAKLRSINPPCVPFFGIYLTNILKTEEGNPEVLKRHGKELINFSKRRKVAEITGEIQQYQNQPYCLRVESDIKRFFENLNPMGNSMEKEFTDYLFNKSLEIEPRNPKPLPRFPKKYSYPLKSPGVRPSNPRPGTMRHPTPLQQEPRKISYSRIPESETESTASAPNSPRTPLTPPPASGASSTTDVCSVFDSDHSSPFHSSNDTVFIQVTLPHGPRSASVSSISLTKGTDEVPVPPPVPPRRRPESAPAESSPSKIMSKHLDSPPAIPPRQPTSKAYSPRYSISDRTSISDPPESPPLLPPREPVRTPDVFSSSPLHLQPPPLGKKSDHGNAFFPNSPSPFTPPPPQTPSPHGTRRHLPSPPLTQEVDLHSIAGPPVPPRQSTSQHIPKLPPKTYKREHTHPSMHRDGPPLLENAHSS
Put plainly: Inhibition of SOS1 in human HeLa cells assessed as reduction in RAS activation pretreated for 30 mins followed by EGF stimulation for 3 mins by G-LISA analysis. It counts as cell-based.

Beta-adrenergic receptor kinase 1 (Homo sapiens), sequence (P25098 whole entry): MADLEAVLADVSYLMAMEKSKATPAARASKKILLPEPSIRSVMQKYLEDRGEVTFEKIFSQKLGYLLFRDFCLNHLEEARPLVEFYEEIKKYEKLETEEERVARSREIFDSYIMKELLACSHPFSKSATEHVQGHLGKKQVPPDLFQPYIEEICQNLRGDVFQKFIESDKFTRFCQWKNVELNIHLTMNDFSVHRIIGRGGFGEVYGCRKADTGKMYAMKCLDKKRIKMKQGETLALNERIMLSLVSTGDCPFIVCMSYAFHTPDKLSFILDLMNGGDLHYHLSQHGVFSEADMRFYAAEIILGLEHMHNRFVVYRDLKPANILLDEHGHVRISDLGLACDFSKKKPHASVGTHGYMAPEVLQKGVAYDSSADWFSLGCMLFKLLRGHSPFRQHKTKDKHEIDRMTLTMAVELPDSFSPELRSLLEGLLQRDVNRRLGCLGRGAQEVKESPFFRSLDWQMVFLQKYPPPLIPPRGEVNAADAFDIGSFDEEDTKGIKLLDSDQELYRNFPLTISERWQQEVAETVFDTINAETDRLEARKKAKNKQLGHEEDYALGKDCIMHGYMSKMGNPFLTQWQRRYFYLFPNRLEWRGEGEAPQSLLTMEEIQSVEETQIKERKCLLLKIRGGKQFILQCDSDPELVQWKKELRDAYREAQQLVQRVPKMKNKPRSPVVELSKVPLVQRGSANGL
Calcium/calmodulin-dependent protein kinase type 1G (Homo sapiens), sequence (Q96NX5 whole entry, the tested form may be a part): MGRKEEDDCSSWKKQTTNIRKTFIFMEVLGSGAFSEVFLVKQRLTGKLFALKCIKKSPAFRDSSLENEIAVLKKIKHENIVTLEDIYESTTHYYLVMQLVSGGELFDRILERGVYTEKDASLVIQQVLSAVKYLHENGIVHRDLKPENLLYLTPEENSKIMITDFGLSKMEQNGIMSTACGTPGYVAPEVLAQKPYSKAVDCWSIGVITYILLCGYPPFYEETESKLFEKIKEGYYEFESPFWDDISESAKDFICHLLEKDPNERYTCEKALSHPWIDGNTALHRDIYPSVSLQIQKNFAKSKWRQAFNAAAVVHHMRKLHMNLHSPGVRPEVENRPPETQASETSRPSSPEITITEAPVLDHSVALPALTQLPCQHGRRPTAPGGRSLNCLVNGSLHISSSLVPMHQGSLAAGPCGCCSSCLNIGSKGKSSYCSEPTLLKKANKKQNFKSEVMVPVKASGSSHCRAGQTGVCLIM
Receptor tyrosine-protein kinase erbB-2 (Homo sapiens), sequence (P04626 whole entry): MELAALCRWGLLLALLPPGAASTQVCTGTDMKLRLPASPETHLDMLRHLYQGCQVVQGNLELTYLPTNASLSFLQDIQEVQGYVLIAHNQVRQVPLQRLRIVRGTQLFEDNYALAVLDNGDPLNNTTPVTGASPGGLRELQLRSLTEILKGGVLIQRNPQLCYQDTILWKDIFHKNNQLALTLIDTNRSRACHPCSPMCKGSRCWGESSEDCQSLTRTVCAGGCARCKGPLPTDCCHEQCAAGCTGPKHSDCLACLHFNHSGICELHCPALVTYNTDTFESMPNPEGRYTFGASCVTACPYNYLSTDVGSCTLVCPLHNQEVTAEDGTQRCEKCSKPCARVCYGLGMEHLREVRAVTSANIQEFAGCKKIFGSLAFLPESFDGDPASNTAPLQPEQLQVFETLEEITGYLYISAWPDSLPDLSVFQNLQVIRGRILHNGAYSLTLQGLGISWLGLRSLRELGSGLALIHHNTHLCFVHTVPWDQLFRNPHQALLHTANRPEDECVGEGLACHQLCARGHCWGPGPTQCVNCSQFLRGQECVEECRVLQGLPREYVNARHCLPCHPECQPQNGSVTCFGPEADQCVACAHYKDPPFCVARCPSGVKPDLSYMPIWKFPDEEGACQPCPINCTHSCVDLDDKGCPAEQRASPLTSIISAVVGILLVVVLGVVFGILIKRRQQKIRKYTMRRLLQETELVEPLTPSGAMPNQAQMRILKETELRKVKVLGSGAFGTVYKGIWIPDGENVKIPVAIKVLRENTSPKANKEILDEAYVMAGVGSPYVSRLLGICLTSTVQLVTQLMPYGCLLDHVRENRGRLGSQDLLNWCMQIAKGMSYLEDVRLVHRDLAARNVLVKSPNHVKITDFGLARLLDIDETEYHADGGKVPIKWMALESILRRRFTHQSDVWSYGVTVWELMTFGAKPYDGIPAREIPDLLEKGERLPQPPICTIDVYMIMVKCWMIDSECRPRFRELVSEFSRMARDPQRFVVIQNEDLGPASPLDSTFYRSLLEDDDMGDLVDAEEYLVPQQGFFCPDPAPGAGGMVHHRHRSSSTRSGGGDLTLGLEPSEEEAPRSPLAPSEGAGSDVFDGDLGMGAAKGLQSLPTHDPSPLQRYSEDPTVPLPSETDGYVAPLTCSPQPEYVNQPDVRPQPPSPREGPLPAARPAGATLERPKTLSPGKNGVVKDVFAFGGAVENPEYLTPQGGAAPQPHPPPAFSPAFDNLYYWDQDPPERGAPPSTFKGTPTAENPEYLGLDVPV
Epithelial discoidin domain-containing receptor 1 (Homo sapiens), sequence (Q08345 whole entry, the tested form may be a part): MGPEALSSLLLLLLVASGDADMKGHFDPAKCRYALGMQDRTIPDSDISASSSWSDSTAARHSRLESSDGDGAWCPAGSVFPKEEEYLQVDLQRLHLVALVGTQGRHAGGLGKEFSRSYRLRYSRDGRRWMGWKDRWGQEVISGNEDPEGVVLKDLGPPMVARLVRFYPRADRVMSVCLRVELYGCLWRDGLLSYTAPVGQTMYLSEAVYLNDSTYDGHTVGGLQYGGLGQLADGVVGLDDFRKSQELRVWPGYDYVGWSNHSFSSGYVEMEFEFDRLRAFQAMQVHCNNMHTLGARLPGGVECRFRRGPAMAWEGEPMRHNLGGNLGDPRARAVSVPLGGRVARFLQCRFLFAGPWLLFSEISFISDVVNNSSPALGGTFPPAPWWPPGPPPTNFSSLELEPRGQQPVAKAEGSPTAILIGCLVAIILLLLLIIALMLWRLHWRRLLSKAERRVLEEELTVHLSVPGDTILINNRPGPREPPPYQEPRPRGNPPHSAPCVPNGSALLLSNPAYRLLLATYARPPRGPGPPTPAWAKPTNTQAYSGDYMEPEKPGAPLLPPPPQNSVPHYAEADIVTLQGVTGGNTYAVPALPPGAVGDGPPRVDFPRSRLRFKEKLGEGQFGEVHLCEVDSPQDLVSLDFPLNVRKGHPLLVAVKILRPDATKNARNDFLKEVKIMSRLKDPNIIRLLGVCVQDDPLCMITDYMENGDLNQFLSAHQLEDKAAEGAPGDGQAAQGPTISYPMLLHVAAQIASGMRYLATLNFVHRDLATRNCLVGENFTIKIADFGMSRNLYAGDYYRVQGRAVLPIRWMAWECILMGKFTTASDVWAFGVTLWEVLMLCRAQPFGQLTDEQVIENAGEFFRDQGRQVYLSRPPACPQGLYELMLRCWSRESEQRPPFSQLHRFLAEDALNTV
RAC-gamma serine/threonine-protein kinase (Homo sapiens), sequence (Q9Y243 whole entry): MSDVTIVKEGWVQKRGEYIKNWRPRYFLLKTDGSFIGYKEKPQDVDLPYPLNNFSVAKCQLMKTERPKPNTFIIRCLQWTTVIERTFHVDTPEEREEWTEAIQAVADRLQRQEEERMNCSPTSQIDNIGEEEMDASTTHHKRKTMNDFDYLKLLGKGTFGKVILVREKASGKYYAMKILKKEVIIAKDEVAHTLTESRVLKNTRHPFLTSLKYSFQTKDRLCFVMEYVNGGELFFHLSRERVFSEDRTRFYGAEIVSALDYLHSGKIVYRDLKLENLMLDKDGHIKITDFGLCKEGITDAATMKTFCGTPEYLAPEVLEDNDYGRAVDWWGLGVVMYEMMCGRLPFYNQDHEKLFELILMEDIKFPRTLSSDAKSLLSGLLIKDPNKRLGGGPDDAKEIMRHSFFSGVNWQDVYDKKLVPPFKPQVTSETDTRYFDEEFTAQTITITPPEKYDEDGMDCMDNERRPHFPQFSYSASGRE
Serine/threonine-protein kinase MAK (Homo sapiens), sequence (P20794 whole entry, looked up): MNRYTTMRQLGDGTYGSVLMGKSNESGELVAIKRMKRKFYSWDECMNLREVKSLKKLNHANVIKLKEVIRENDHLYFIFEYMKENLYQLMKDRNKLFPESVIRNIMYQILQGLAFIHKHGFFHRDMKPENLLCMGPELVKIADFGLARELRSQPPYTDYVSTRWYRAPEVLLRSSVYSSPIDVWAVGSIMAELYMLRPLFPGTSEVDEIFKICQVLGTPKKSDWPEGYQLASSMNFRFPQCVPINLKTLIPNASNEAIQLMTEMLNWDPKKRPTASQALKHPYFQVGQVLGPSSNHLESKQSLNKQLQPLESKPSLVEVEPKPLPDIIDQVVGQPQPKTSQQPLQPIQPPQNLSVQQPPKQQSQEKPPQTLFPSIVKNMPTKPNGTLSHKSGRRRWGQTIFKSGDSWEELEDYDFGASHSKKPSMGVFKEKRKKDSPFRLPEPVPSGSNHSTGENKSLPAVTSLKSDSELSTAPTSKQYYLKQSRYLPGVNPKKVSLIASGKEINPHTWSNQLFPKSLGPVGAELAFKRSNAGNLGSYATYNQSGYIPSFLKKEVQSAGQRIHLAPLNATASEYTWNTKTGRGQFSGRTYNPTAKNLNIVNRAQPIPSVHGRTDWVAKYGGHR

Regarding `COc1cc2nc(C)nc(N[C@H](C)c3cccc(-c4cn[nH]c4)c3)c2cc1OC`, the Activity in test [1] was determined as 62%.

Turning to `COc1cc2ncnc(N[C@H](C)c3cccc4ccccc34)c2cc1OC`, the Activity in [2] stood at 100%; in test [3], 72%; in test [4], 100%; in test [5], 84%; in test [6], 94%; in [7] it was 100%. The Activity in test [8] stood at 86%.

With `COc1cc2nc(C)nc(NC(C)c3ccc(-c4cnc5n4CCC5)s3)c2cc1OC` (centres undefined), the IC50 in [9] was determined as 5.34 µM.
